Here are results for 14 compounds from PMC3121759 (PLoS ONE, 2011).

“And” between values parts separate entries of the source, which are not always exact repeats. Equal values may be shown once. Read-outs that look alike come from different tables or passages of the source. Where only a bound is given, the exact number is not on record here.

Experiment [1] deals with T1, GlyT-1 (Rattus norvegicus, UniProt P28572).
T1 construct: the tissues of whole brains or each specific brain region were homogenized; from tissue; host or cells: rat brain (whole brain or dissected regions; male Crl:CD (SD) rats)
T1 sequence (P28572 1-638): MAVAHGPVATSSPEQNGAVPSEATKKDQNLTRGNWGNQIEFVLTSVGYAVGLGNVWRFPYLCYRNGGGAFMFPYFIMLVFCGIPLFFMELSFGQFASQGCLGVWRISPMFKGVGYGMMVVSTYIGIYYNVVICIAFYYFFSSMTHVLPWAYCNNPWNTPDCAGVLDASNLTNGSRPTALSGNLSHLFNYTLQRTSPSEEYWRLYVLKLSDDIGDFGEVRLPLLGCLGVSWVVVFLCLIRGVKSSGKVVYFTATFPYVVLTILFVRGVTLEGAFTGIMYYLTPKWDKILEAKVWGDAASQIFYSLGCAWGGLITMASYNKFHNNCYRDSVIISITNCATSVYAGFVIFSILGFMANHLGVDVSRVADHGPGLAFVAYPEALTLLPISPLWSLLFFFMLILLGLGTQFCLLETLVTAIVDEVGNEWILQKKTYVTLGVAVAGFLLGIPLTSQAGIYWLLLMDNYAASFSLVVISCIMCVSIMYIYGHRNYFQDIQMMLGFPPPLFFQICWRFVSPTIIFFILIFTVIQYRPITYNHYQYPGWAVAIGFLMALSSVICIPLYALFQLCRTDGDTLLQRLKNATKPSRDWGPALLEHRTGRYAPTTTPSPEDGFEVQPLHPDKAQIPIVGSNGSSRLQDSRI
Description: Drug inhibition of [3H]CHIBA-3007 binding to rat brain membranes. The note with it: [3H]CHIBA-3007 (1 nM). On the procedure:
The supernatant was discarded and the pellet was re-suspended, homogenized and centrifuged as above. The membrane pellet was washed and re-suspended in ice-cold HEPES buffer and was then centrifuged three times. The final pellet was re-suspended in 15 volumes of the buffer (120 mM NaCl, 2 mM KCl, 1 mM CaCl2, 1 mM MgCl2 10 mM HEPES, pH 7.5 at room temperature).
The binding reaction was terminated by rapid vacuum filtration onto Whatman GF/B glass filters pretreated with 0.5% polyethyleneimine (Sigma-Aldrich Co.) using a 24-channel cell harvester (Brandell, Gaithersburg, MD). The filters were washed with 5 mL of ice-cold assay buffer 3 times, and placed in vials with 4 mL scintillation cocktail. The radioactivity trapped by the filters was determined using a liquid scintillation counter (Beckman LS-6500; Beckman Coulter K.K., Tokyo, Japan).
(§1) The data are shown as the mean ± standard error of the mean (S.E.M.). The dissociation constant (Kd) and maximal binding (Bmax) values from saturation binding and the IC50 values from binding displacement by each drug were determined using the program GraphPad Prism (GraphPad Software, San Diego, CA). […] Correlation was analyzed by Pearson's Correlation Coefficient (PASW Statistics 19, Tokyo, Japan). Significance was set at p<0.05.

Experiment [2] concerns the target T1, GlyT-1. Description: Inhibition of [14C]glycine uptake in rat brain membranes. The class given is biochemical. On the procedure:
The homogenate was centrifuged at 1,000 g for 10 min to remove nuclei and debris, and then the supernatant was centrifuged again at 20,000 g for 20 min (synaptosomal P2 fraction). The pellet was washed and re-suspended in ice-cold 0.32 M sucrose, buffered with 10 mM HEPES (pH 7.4) and centrifuged again at 20,000 g for 20 min (washed P2 fraction). The pellet was re-suspended in 10 volumes of assay buffer with the following composition: 10 mM HEPES buffer (pH 7.4) containing 140 mM NaCl, 5.5 mM KCl, 1.8 mM CaCl2, 0.8 mM MgSO4, 5 mM glucose and 5 mM L-alanine (HB). The protein concentrations were measured by using a DC protein assay kit (Bio-Rad Laboratories Inc., Tokyo, Japan).
Non-specific uptake was estimated in the presence of 30 µM SSR504734. […] The filters were washed by buffer, and the radioactivity trapped by the filters was determined using a liquid scintillation counter as described above.
as §1

Experiment [3] deals with GlyT-1. The note with it: cited from earlier work.
For experiment [4], the target named is T1, GlyT-1. Nature of the experiment: Equilibrium saturation binding of [3H]CHIBA-3007 to rat brain membranes. On the procedure:
For saturation-binding isotherms, 6 grade-diluted concentrations of [^3H]CHIBA-3007 (0.3125–10 nM) were used. Specific binding of [^3H]CHIBA-3007 to rat brain membranes was saturable and rapid, and represented >90% of total binding over the concentration range of [^3H]CHIBA-3007 (Figure 2).
Figure 2 Specific binding of [^3H]CHIBA-3007 to rat brain membranes. Rat brain membranes were incubated with various concentrations of [^3H]CHIBA-3007 (0.3125–10 nM) for 120 min at room temperature. Nonspecific binding was estimated in the presence of 10 µM SSR504734. The results are from a typical experiment and values are the average of duplicate determinations. […] TB: total binding, NSB: nonspecific binding, SB: specific binding. The results are means ± S.E.M. of three independent experiments performed in duplicate. […] The data are the mean of three independent experiments performed in duplicate.
(§2) For the [^3H]CHIBA-3007-binding assay, the tissues of whole brains or each specific brain region were homogenized in 15 volumes (w/v) of 10 mM 4-(2-hydroxyethyl)-1- piperazineethanesulfonic acid (HEPES) at pH 7.4 for 30 s on ice. The homogenate was centrifuged at 40,000 g for 15 min at 4°C. The supernatant was discarded and the pellet was re-suspended, homogenized and centrifuged as above. The membrane pellet was washed and re-suspended in ice-cold HEPES buffer and was then centrifuged three times. The final pellet was re-suspended in 15 volumes of the buffer (120 mM NaCl, 2 mM KCl, 1 mM CaCl2, 1 mM MgCl2 10 mM HEPES, pH 7.5 at room temperature).
Assays of the binding of [^3H]CHIBA-3007 to rat brain membranes were performed. Aliquots of the rat brain membrane suspension (200 µL) were added in duplicate to a reaction mixture containing [^3H]CHIBA-3007 and the indicated concentrations of test drug in a final volume of 0.5 mL. Non-specific binding was estimated in the presence of 10 µM SSR504734, a potent and selective GlyT-1 inhibitor [34]. [3H]CHIBA-3007 binding was allowed to occur for 120 min at room temperature for the equilibrium saturation and inhibition studies. The binding reaction was terminated by rapid vacuum filtration onto Whatman GF/B glass filters pretreated with 0.5% polyethyleneimine (Sigma-Aldrich Co.) using a 24-channel cell harvester (Brandell, Gaithersburg, MD). The filters were washed with 5 mL of ice-cold assay buffer 3 times, and placed in vials with 4 mL scintillation cocktail. The radioactivity trapped by the filters was determined using a liquid scintillation counter (Beckman LS-6500; Beckman Coulter K.K., Tokyo, Japan).
as §1

Experiment [5] has as its target T1, GlyT-1. Nature of the experiment: Regional distribution of [3H]CHIBA-3007 binding in rat brain. The following applies: [3H]CHIBA-3007 1 nM, seven rat brain regions. On the procedure: After sacrificing the rats by decapitation, the brains were rapidly removed from the skulls. Whole brains or seven specific cerebral regions - the cerebral cortex, striatum, hippocampus, thalamus, midbrain, cerebellum and pons - dissected on ice by the method of Glowinski and Iversen were stored at −80°C until use for the assay.
as §2
Assays of the binding of [^3H]CHIBA-3007 to rat brain membranes were performed. […] The radioactivity trapped by the filters was determined using a liquid scintillation counter (Beckman LS-6500; Beckman Coulter K.K., Tokyo, Japan).

In experiment [6] the target is T1, GlyT-1. The following applies: cited from earlier work.
In experiment [7] the test system is GlyT-1. The note with it: read-out: IC50 for [3H]glycine uptake; cited from earlier work.
[8] abbreviates: 120 min room temperature, mean ± S.E.M., n=3.

In turn, `O=C(N[C@@H](c1ccsc1)[C@H]1CCCCN1)c1nccc(C(F)(F)F)c1Cl` [Desmethyl-CHIBA-3007, 3-chloro-N-((S)-((R)-piperidin-2-yl)(thiophen-3-yl)methyl)-4-(trifluoromethyl)picolinamide] came in with a Ki on GlyT-1 [1] (setting [8]) of 35.9 ± 1.3 nM. On GlyT-1 [2], this compound had an IC50 of 187 ± 40 nM.
As to `O=C(N[C@@H](c1ccccc1)[C@@H]1CCCCN1)c1cccc(C(F)(F)F)c1Cl` [SSR504734], the Ki at GlyT-1 [1] (setting [8]) was 24.6 ± 0.8 nM. At GlyT-1 [2], this compound showed an IC50 of 84.5 ± 29.8 nM. Besides, in the experiment on GlyT-1 [3], the “pIC50 for inhibiting [3H]glycine uptake” value was 6.52.
With `[3H]C([3H])([3H])N1CCCC[C@@H]1[C@@H](NC(=O)c1nccc(C(F)(F)F)c1Cl)c1ccsc1` [[^3H]CHIBA-3007, [^3H]3-chloro-N-((S)-((R)-1-methylpiperidin-2-yl)(thiophen-3-yl)methyl)-4-(trifluoromethyl)picolinamide], the Nonspecific binding at GlyT-1 [4] was < 10%. Further, the “Time to reach binding equilibrium” value at GlyT-1 [4] (kinetic study, data not shown) is “less than 5 min”. Also, the “Specific binding as share of total binding” value on GlyT-1 [4] (over the concentration range 0.3125–10 nM) is listed as > 90%. Also, at GlyT-1 [4] (room temperature, n=3), the “Bmax (maximal number of binding sites)” value is 692.8 fmol/mg protein and 692.8±22.8 fmol/mg protein. In addition, at GlyT-1 [5], the “Order of specific binding in brain regions” value is “midbrain > pons > thalamus > cerebellum > striatum > hippocampus > cerebral cortex”.
As to `Cc1cccc(C)c1C(=O)N[C@@H](c1ccccc1)C1(N(C)C)CCCC1` [[^3H]GSK931145], the Kd on GlyT-1 [6] is 1 to 2 nM.
As to `O=C(N[C@@H](c1cccc(-c2cn[nH]c2)c1)[C@H]1CCCCN1)c1nccc(C(F)(F)F)c1Cl` [CHIBA-3008, N-((S)-(3-(1H-pyrazol-4-yl)phenyl)((R)-piperidin-2-yl)methyl)-3-chloro-4-(trifluoromethyl)pyridine-2-carboxamide], the Ki at GlyT-1 [1] (setting [8]) turned out to be 2.2 ± 0.6 nM. Besides, in the experiment with GlyT-1 [7], the IC50 was 0.2 nM.
Take `CN(CC[C@@H](Oc1ccc(C(F)(F)F)cc1)c1ccccc1)CC(=O)O` (racemic) [Org24598, (R,S)-(±)N-methyl-N-[(4-trifluoromethyl)phenoxy]-3-phenylpropylglycine]: the affinity on GlyT-1 [1] (setting [8]), expressed as Ki, was 16.9 ± 3.1 nM. Also, it took 653 ± 154 nM to reach half-maximal inhibition against GlyT-1 [2] (IC50).
In turn, `CN(CCOc1ccc(-c2ccc3c(c2)OCO3)cc1C(C)(C)C)CC(=O)O` [LY2365109] returned a Ki on GlyT-1 [1] (setting [8]) of 16.2 ± 4.9 nM. The compound further came in with an IC50 against GlyT-1 [2] of 1350 nM.
Turning to `[3H]C([3H])([3H])N(C)C1([C@@H](NC(=O)c2c(C)cccc2C)c2ccccc2)CCCC1` [[^3H]GSK931145], the “Specific binding as share of total binding” value on GlyT-1 [6] (at concentrations around Kd) is > 90%. In addition, the Bmax entry on GlyT-1 [6] (rat brain) is reported as “around 3000 fmol/mg protein”.
As to `COc1ccc2c(c1)CC[C@H](CN(C)CC(=O)O)[C@@H]2c1ccccc1` [Org25935], the “Type of interaction with binding of [3H]SB-733993 and [3H]GSK931145” value at GlyT-1 [6] was “uncompetitive interactions”.
The compound `CN(CCC(Oc1ccc(-c2ccccc2)cc1)c1ccc(F)cc1)CC(=O)O` (centres unmarked) [NFPS/ALX5407, N-[3-(4-fluorophenyl)-3-(4-phenyl-phenoxy)propyl]-sarcosine] gave a Ki on GlyT-1 [1] (setting [8]) of 4.1 ± 0.9 nM. Also, the IC50 against GlyT-1 [2] was 83.7 ± 30.3 nM. In addition, the “Type of interaction with binding of [3H]SB-733993 and [3H]GSK931145” value on GlyT-1 [6] is on record as “uncompetitive interactions”.
In the case of `CNCC(=O)O` [Sarcosine, sarcosine], the Ki at GlyT-1 [1] and at GlyT-1 [1] (setting [8]) was 103000 nM each time. Also, it took 414000 nM to reach half-maximal inhibition on GlyT-1 [2] (IC50).
As for `Cc1cccc(C)c1C(=O)N[C@@H](c1ccccc1)C1(N(C)C)CCCC1` [GSK931145], the “pIC50 for inhibiting [3H]glycine uptake” value in the experiment on GlyT-1 [3] was 7.58.
As to `N[C@@H](COC(c1cccc(F)c1)c1ccccc1OCc1ccccc1)C(=O)O` (stereo partly drawn) [ALX1393, O-[(2-benzyloxyphenyl-3-flurophenyl)methyl]-L-serine], the affinity at GlyT-1 [1] (setting [8]), expressed as Ki, was 852 ± 56.4 nM.
For `CN1CCCC[C@@H]1[C@@H](NC(=O)c1nccc(C(F)(F)F)c1Cl)c1ccsc1` [[^3H]CHIBA-3007, [^3H]3-chloro-N-((S)-((R)-1-methylpiperidin-2-yl)(thiophen-3-yl)methyl)-4-(trifluoromethyl)picolinamide], on GlyT-1 [4] (room temperature, 0.3125–10 nM radioligand, n=3, read-out: Kd (apparent equilibrium dissociation constant)), the Kd amounted to 1.61 ± 0.16 nM.
